Target: T1, human CTPS1 (Homo sapiens, UniProt P17812)
T1 construct: FLAG (with GG linker); His8 (with GG linker); purchased Proteros biostructures GmbH
T1 sequence (P17812 1-591): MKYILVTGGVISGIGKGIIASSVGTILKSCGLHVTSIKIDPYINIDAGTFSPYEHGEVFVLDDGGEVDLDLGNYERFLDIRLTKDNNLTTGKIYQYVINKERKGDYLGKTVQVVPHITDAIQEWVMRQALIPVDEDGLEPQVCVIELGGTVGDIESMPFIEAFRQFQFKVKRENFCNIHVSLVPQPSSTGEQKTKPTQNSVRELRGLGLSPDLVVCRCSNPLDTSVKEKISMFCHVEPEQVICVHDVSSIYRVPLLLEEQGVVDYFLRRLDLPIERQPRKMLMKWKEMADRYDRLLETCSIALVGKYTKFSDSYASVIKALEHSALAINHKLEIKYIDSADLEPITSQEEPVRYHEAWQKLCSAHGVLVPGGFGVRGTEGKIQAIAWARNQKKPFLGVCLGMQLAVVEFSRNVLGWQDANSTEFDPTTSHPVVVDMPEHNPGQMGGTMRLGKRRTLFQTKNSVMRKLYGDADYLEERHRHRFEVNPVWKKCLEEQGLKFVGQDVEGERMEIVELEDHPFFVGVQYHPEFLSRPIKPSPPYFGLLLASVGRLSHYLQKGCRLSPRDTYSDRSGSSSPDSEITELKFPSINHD
Experiment: RapidFire/MS-based enzyme selectivity assay (human CTPS1 versus CTPS2), CTPS1 isoform
Assay type: biochemical
Conditions: RapidFire/MS IC50 values of CTPS1 and CTPS2; Table 15
Method in brief: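 Full-length C-terminal FLAG-His-tagged CTPS1 (1-591) was preincubated 10 min at 25 °C with compound in HEPES pH 8.0 buffer with MgCl2, KCl, DTT and Tween-20. Reactions were started with a 2× mix of ATP 0.3 mM, UTP 0.2 mM, GTP 0.07 mM and L-glutamine 0.1 mM, and run in the linear phase at 25 °C. IC50 comes from the RapidFire-MS ratio of CTP to 13C9-15N3-CTP.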

Selectivity (fold selectivity between CTPS1 and CTPS2)	Compound
+ (2-30 fold (+))	CCOc1cncc(-c2ccc(NC(=O)C(OC)c3ccnc(NS(=O)(=O)C4CC4)n3)cc2)n1 (stereo not shown) [P164, 2-(2-(cyclopropanesulfonamido)pyrimidin-4-yl)-N-(4-(6-ethoxypyrazin-2-yl)phenyl)-2-methoxyacetamide]
++ (>30-60 fold (++))	CCOc1cncc(-c2ccc(NC(=O)C(CC)c3cccc(NS(=O)(=O)C4CC4)n3)nc2)n1 (stereo not shown) [P188, 2-(6-(cyclopropanesulfonamido)pyridin-2-yl)-N-(5-(6-ethoxypyrazin-2-yl)pyridin-2-yl)butanamide]
++ (>30-60 fold (++))	CCOc1cncc(-c2ccc(NC(=O)C(CC)c3cccc(NS(=O)(=O)C4CC4)n3)cc2)n1 (stereo not shown) [P191, 2-(6-(cyclopropanesulfonamido)pyridin-2-yl)-N-(4-(6-ethoxypyrazin-2-yl)phenyl)butanamide]
+++ (>60 fold (+++))	CCOc1cncc(-c2ccc(NC(=O)C(C)(C)c3cncc(NS(=O)(=O)C4CC4)n3)nc2)n1 [P195, 2-(6-(cyclopropanesulfonamido)pyrazin-2-yl)-N-(5-(6-ethoxypyrazin-2-yl)pyridin-2-yl)-2-methylpropanamide]
+++ (>60 fold (+++))	CCOc1cncc(-c2ccc(NC(=O)C(C)(C)c3cncc(NS(=O)(=O)C4CC4)n3)cc2)n1 [P196, 2-(6-(cyclopropanesulfonamido)pyrazin-2-yl)-N-(4-(6-ethoxypyrazin-2-yl)phenyl)-2-methylpropanamide]
+++ (>60 fold (+++))	CCOc1cncc(-c2ccc(NC(=O)C3(c4cncc(NS(=O)(=O)C5CC5)n4)CCOCC3)nc2)n1 [P197, 4-(6-(cyclopropanesulfonamido)pyrazin-2-yl)-N-(5-(6-ethoxypyrazin-2-yl)pyridin-2-yl)tetrahydro-2H-pyran-4-carboxmaide]
+++ (>60 fold (+++))	CCOc1cncc(-c2ccc(NC(=O)C(C)(CCOC)c3cncc(NS(=O)(=O)C4CC4)n3)nc2)n1 (stereo not shown) [P198, 2-(6-(cyclopropanesulfonamido)pyrazin-2-yl)-N-(5-(6-ethoxypyrazin-2-yl)pyridin-2-yl)-4-methoxy-2-methylbutanamide]
++ (>30-60 fold (++))	CCOc1cncc(-c2ccc(NC(=O)C(F)(CC)c3cncc(NS(=O)(=O)C4CC4)n3)nc2)n1 (stereo not shown) [P200, 2-(6-(cyclopropanesulfonamido)pyrazin-2-yl)-N-(5-(6-ethoxypyrazin-2-yl)pyridin-2-yl)-2-fluorobutanamide]
+++ (>60 fold (+++))	CCOc1cncc(-c2ccc(NC(=O)C(CC)c3cncc(NS(=O)(=O)C4CC4)n3)nc2)n1 (stereo not shown) [P201, 2-(6-(cyclopropanesulfonamido)pyrazin-2-yl)-N-(5-(6-ethoxypyrazin-2-yl)pyridin-2-yl)butanamide]
+++ (>60 fold (+++))	CCOc1cncc(-c2ccc(NC(=O)C(CC)c3cncc(NS(=O)(=O)C4CC4)n3)cc2)n1 (stereo not shown) [P202, 2-(6-(cyclopropanesulfonamido)pyrazin-2-yl)-N-(4-(6-ethoxypyrazin-2-yl)phenyl)butanamide]
+++ (>60 fold (+++))	CCOc1cncc(-c2ccc(C(=O)NC(CC)c3ccnc(NS(=O)(=O)C4CC4)n3)c(F)c2)n1 (stereo not shown) [P216, N-(1-(2-(cyclopropanesulfonamido)pyrimidin-4-yl)propyl)-4-(6-ethoxypyrazin-2-yl)-2-fluorobenzamide]
+ (2-30 fold (+))	CC(C)Oc1cncc(-c2ccc(C(=O)NC(C)(C)c3cncc(NS(=O)(=O)C4CC4)n3)c(F)c2)n1 [P221, N-(2-(6-(cyclopropanesulfonamido)pyrazin-2-yl)propan-2-yl)-2-fluoro-4-(6-isopropoxypyrazin-2-yl)benzamide]
+ (2-30 fold (+))	CC(C)(NC(=O)c1ccc(-c2cncc(C(F)(F)F)n2)cc1)c1cncc(NS(=O)(=O)C2CC2)n1 [P222, N-(2-(6-(cyclopropanesulfonamido)pyrazin-2-yl)propan-2-yl)-4-(6-(trifluoromethyl)pyrazin-2-yl)benzamide]

Same assay, conditions: RapidFire/MS IC50 values of CTPS1 and CTPS2; Table 17

Selectivity (fold selectivity between CTPS1 and CTPS2)	Compound
+++ (>60 fold (+++))	CCOc1cncc(-c2ccc(NC(=O)C3(c4ccnc(NS(=O)(=O)C5CC5)n4)CCC(=O)CC3)nc2)n1 [P226, 1-(2-(Cydopropanesulfonamido)pyrimidin-4-yl)-N-(5-(6-ethoxypyrazin-2-yl)pyridin-2-yl)-4-oxocyclohexanecarboxamide]
+++ (>60 fold (+++))	CCOc1cncc(-c2ccc(NC(=O)C3(c4ccnc(NS(=O)(=O)C5CC5)n4)CCC(F)(F)CC3)nc2)n1 [P242]
+++ (>60 fold (+++))	CCOc1cncc(-c2ccc(NC(=O)C3(c4ccnc(NS(=O)(=O)C5CC5)n4)CCC4(CC3)OCCO4)nc2)n1 [P244, 8-(2-(cydopropanesulfonamido)pyrimidin-4-yl)-N-(5-(6-ethoxypyrazin-2-yl)pyridin-2-yl)-1,4-dioxaspiro[4.5]decane-8-carboxamide]
+++ (>60 fold (+++))	CCOc1cncc(-c2ccc(NC(=O)C3(c4ccnc(NS(=O)(=O)N(C)C)n4)CCOCC3)nc2)n1 [P248]
+++ (>60 fold (+++))	CCOc1cncc(-c2ccc(NC(=O)C3(c4ccnc(NS(=O)(=O)C5CC5)n4)CCN(S(C)(=O)=O)CC3)nc2)n1 [P251]

Same assay, conditions: Table 16, human CTPS1 over human CTPS2, RapidFire/MS IC50 values

Selectivity (fold selectivity between CTPS1 and CTPS2)	Compound
+ (2-30 fold (+))	CCC(NC(=O)c1ccc(-c2cncc(C(F)(F)F)n2)cc1)c1csc(NS(=O)(=O)C2CC2)n1 (stereo not shown) [R5, N-(1-(2-(cyclopropanesulfonamido)thiazol-4-yl)propyl)-4-(6-(trifluoromethyl)pyrazin-2-yl)benzamide]
++ (>30-60 fold (++))	CCOc1cncc(-c2ccc(C(=O)NC(C)(C)c3csc(NS(=O)(=O)C4CC4)n3)c(OC)c2)n1 [R7, N-(2-(2-(cyclopropanesulfonamido)thiazol-4-yl)propan-2-yl)-4-(6-ethoxypyrazin-2-yl)-2-methoxybenzamide]
++ (>30-60 fold (++))	CCOc1cncc(-c2ccc(C(=O)NCc3csc(NS(=O)(=O)C4CC4)n3)c(F)c2)n1 [R11, N-((2-(cyclopropanesulfon-amido)thiazol-4-yl)methyl)-4-(6-ethoxypyrazin-2-yl)-2-fluorobenzamide]
++ (>30-60 fold (++))	CCC(CC)(NC(=O)c1ccc(-c2cncc(C(F)(F)F)n2)cc1)c1csc(NS(=O)(=O)C2CC2)n1 [R19, N-(3-(2-(cyclopropanesulfon-amido)thiazol-4-yl)pentan-3-yl)-4-(6-(trifluoromethyl)pyrazin-2-yl)benzamide]
++ (>30-60 fold (++))	CCOc1cncc(-c2cnc(C(=O)NC(C)(C)c3csc(NS(=O)(=O)C4CC4)n3)c(F)c2)n1 [R23, N-(2-(2-(cyclopropanesulfon-amido)thiazol-4-yl)propan-2-yl)-5-(6-ethoxypyrazin-2-yl)-3-fluoropicolinamide]
++ (>30-60 fold (++))	CC(C)(NC(=O)c1ccc(-c2cncc(Cl)n2)cn1)c1csc(NS(=O)(=O)C2CC2)n1 [R25, 5-(6-chloropyrazin-2-yl)-N-(2-(2-(cyclopropanesulfonamido)thiazol-4-yl)propan-2-yl)picolinamide]
+++ (>60 fold (+++))	CCOc1cncc(-c2ccc(C(=O)NC(C)(C)c3csc(NS(=O)(=O)C4CC4)n3)nc2)n1 [R26, N-(2-(2-(cyclopropanesulfon-amido)thiazol-4-yl)propan-2-yl)-5-(6-ethoxypyrazin-2-yl)picolinamide]
++ (>30-60 fold (++))	CCc1cncc(-c2ccc(C(=O)NC(C)(C)c3csc(NS(=O)(=O)C4CC4)n3)c(F)c2)n1 [R41, N-(2-(2-(cyclopropanesulfon-amido)thiazol-4-yl)propan-2-yl)-4-(6-ethylpyrazin-2-yl)-2-fluorobenzamide]
++ (>30-60 fold (++))	CC(C)(NC(=O)c1ccc(-c2cncc(C(F)(F)F)n2)cc1F)c1csc(NS(=O)(=O)C2CC2)n1 [R42, N-(2-(2-(cyclopropanesulfonamido)thiazol-4-yl)propan-2-yl)-2-fluoro-4-(6-(trifluoromethyl)pyrazin-2-yl)benzamide]
++ (>30-60 fold (++))	CC(C)Oc1cncc(-c2ccc(C(=O)NC(C)(C)c3csc(NS(=O)(=O)C4CC4)n3)c(F)c2)n1 [R43, N-(2-(2-(cyclopropanesulfonamido)thiazol-4-yl)propan-2-yl)-2-fluoro-4-(6-isopropoxypyrazin-2-yl)benzamide]

From patent publication US20230086703A1, “N-(4-(5-chloropyridin-3-yl)phenyl)-2-(2-(cyclopropanesulfonamido)pyrimidin-4-yl) butanamide derivatives and related compounds as human CTPS1 inhibitors for the treatment of proliferative diseases” (Step Pharma S.A.S., priority 2019, published 2023)
